Patent US11254696B2, “Dianilinopyrimidine compound for inhibiting kinase activity” (Shenzhen Targetrx, Inc., priority 2017, dated 2022)

Experiments:
ALK [WT] = ALK [WT] (Homo sapiens, UniProt Q9UM73); test: Kinase inhibition assay, ALK [WT]; assay type: biochemical
Description: (§1) Compound preparation: The test compounds were dissolved in DMSO to make 20 mM stock solutions. The compounds were diluted in DMSO to 0.1 mM (a dilution with 100 times the final concentration) before use, and a 3-fold series gradient dilution with 11 concentrations was made. Dilutions with 4 times of the final concentration were prepared by diluting with buffer when dosing.
(§2) Kinase assay: after preparing the buffer solution, the enzyme was mixed with pre-diluted compounds with different concentrations, and placed at room temperature for 30 minutes in duplicate. The corresponding substrate and ATP were added thereto and reacted at room temperature for 60 minutes (both a negative and a positive control were set). After the reaction, antibody was added for detection, and after incubation at room temperature for 60 minutes, Evnvision detection was carried out, and data was collected. Data was analyzed and fit according to XLfit5 software. IC50 was calculated by the following formula: (IC50=[(ABS test−ABS begin)/(ABS control−ABS begin)]×100).

ALK [L1196M] = ALK [L1196M] (Homo sapiens, UniProt Q9UM73, L1196M); test: Kinase inhibition assay, ALK [L1196M]; assay type: biochemical
Description: as §1, §2

BaF3 parental = test: Cytotoxicity test (CellTiter-Glo), BaF3 parental; assay type: cell-based; conditions: Mus musculus, 72 hours, read-out: IC50(nM) parental (Ba/F3)
Description: (§3) The in vitro anti-proliferative activity of the compounds of the present disclosure against three types of cells that are cultured in vitro was tested by CellTiter-Glo method.
(§4) Cell lines: BaF3 parental; BaF3 [EML4-ALK] (From WuXi PharmaTech) and BaF3 [EMF4-AFK F1196M] (From WuXi PharmaTech); wherein, BaF3 parental was cultured in RPMI1640 medium containing 10 ng/ml IL-3, 10% fetal bovine serum, 100 U/ml penicillin, and 100 μg/ml streptomycin, BaF3 [EMF4-AFK] and BaF3 [EMF4-AFK F1196M] were cultured in RPMI1640 medium containing 10% fetal bovine serum, 100 U/ml penicillin, and 100 μg/ml streptomycin.
(§5) Reagents and materials: RPMI-1640 (GIBCO, Cat. No. A10491-01); fetal bovine serum (GIBCO, Cat. No. 10099141); 0.25% trypsin-EDTA (GIBCO, Cat. No. 25200); penicillin-streptomycin, liquid (GIBCO, Cat. No. 15140-122); DMSO (Sigma, Cat. No. D2650); CellTiter-Glo Test Kit (Promega, Cat. No. G7572), and 96-well plate (Corning, Cat. No. 3365).
(§6) 1. The test compounds were dissolved in DMSO to make stock solutions and subjected to a series gradient dilution to give solutions with 10-fold working concentration.
(§7) 2. The cells in the logarithmic growth phase were diluted with the culture solution to adjust to the specific cell concentration, 90 μi of cell suspension was added to the 96-well plate to make the cell density reach the specified concentration. The plate was incubated in a incubator at 37° C., containing 5% carbon dioxide gas overnight.
(§8) 3. 10 μl drug solutions were added to each well of the 96-well plate inoculated with cells. 10 concentrations of the compounds were tested starting from the highest concentration of 20 μM with a 3-fold series gradient dilution in duplicate.
(§9) 4. After continuously cultured for 72 hours, the cells were detected by CellTiter-Glo for the cell viability. The dose-effect curve was made using GraphPad Prism software and IC50 was calculated.

BaF3 [EML4-ALK] [1] = target: T1, BaF3 [EML4-ALK] (Homo sapiens, UniProt Q9UM73); test: Cytotoxicity test (CellTiter-Glo), BaF3 [EML4-ALK]; assay type: cell-based; conditions: 72 hours, CellTiter-Glo; read-out: IC50(nM) ALK (Ba/F3)
T1 construct: IC50(nM) ALK (Ba/F3); other: 72 hours, CellTiter-Glo; BaF3 [EML4-ALK]; fused on or other part: Q9HC35 (Echinoderm microtubule-associated protein-like 4)
Description: as §3, §4, §5, §6, §7, §8, §9

BaF3 [EML4-ALK] [2] = test: Cytotoxicity test (CellTiter-Glo), BaF3 [EML4-ALK]; assay type: cell-based; conditions: Ba/F3 cells
Description: as §3, §4, §5, §6, §7, §8, §9

ALK[L1196M] (Ba/F3) [3] = target: T2, ALK[L1196M] (Ba/F3) (Homo sapiens, UniProt Q9UM73, L1196M, cells depend on it); test: Cytotoxicity test (CellTiter-Glo), BaF3 EML4-ALK L1196M; assay type: cell-based; conditions: 72 hours, CellTiter-Glo; read-out: IC50(nM) ALK[L1196M] (Ba/F3)
T2 construct: IC50(nM) ALK[L1196M]; (Ba/F3); other: 72 hours, CellTiter-Glo; BaF3 [EMF4-AFK F1196M]; fused on or other part: Q9HC35 (Echinoderm microtubule-associated protein-like 4)
Description: as §3, §4, §5, §6, §7, §8, §9

ALK[L1196M] (Ba/F3) [4] = test: as above; assay type: cell-based; conditions: Ba/F3 cells
Description: as §3, §4, §5, §6, §7, §8, §9

[5] = Metabolic stability in human liver microsomes; assay type: in vitro ADME; conditions: pH 7.4, 1 μM compound, 0.5 mg/mL protein; for microsomal CLint at 1 μM: read-out: CLint (uL/min/mg), Human liver microsome experiment; for half-life at 1 μM: read-out: t1/2 (min), Human liver microsome experiment
Description: (§10) Experiments in microsomes: Human liver microsomes: 0.5 mg/mL, Xenotech; Rat liver microsomes: 0.5 mg/mL, Xenotech; Coenzyme (NADPH/NADH): 1 mM, Sigma Life Science; Magnesium chloride: 5 mM, 100 mM phosphate buffer (pH 7.4).
(§11) Preparation of stock solution: Powder of the example compounds was accurately weighed and dissolved in DMSO to 5 mM. Preparation of phosphate buffer (100 mM, pH7.4): A pre-formulated 0.5M potassium dihydrogen phosphate (150 mL) was mixed with 0.5M dibasic potassium phosphate (700 mL). The pH of the mixture was adjusted to 7.4 with 0.5M dibasic potassium phosphate solution. The mixture was diluted 5-fold with ultrapure water before use, and magnesium chloride was added to obtain a phosphate buffer (100 mM) containing 100 mM potassium phosphate, 3.3 mM magnesium chloride, pH7.4. A NADPH regeneration system solution (containing 6.5 mM NADP, 16.5 mM G-6-P, 3 U/mL G-6-PD, 3.3 mM magnesium chloride) was prepared and placed on wet ice prior to use. Preparation of stop solution: acetonitrile solution containing 50 ng/mL propranolol hydrochloride and 200 ng/mL tolbutamide (internal standard). 25057.5 μL of phosphate buffer (pH 7.4) was taken into a 50 mL centrifuge tube, to which 812.5 μL human liver microsomes were added, and mixed to obtain a liver microsome dilution solution with a protein concentration of 0.625 mg/mL. 25057.5 μL of phosphate buffer (pH 7.4) was taken into a 50 mL centrifuge tube, to which 812.5 μL SD rat liver microsomes were added, and mixed to obtain a liver microsome dilution solution with a protein concentration of 0.625 mg/mL.
(§12) Incubation of the samples: The stock solution of the respective compound was respectively diluted to 0.25 mM with an aqueous solution containing 70% acetonitrile, and used as a working solution, ready for use. 398 μL of the dilution solution of human liver microsomes or rat liver microsome were added to a 96-well incubation plate (N=2), respectively, and 2 μL of 0.25 mM working solution was added and mixed.
(§13) Metabolic stability assay: 300 μL of pre-chilled stop solution was added to each well of a 96-well deep well plate and placed on ice as a stop plate. The 96 well incubation plate and NADPH regeneration system were placed in a 37° C. water bath box, shaken at 100 rpm and pre-incubated for 5 min. 80 μL of incubation solution was taken out from each well of the incubation plate and added to the stop plate, mixed, and replenished with 20 μL of NADPH regeneration system solution as a 0-min sample. 80 μL of NADPH regeneration system solution was added to each well of the incubation plate to start the reaction and start counting. […] Separately, 100 μL of the reaction solution was taken at 10, 30, and 90 min reaction, respectively, added to a stop plate, and vortexed for 3 minutes to terminate the reaction. The stop plate was centrifuged at 5000×g at 4° C. for 4 min. 100 μL of the supernatant was added to a 96-well plate to which 100 μL of distilled water was previously added, mixed, and analyzed by LC-MS/MS.
(§14) Data analysis: The peak areas of the corresponding compound and internal standard were detected by LC-MS/MS system, and the ratio of the peak area of the compound to the internal standard was calculated.

[6] = Metabolic stability in rat liver microsomes; assay type: in vitro ADME; conditions: SD, pH 7.4, 1 μM compound, 0.5 mg/mL protein; for microsomal CLint at 1 μM: read-out: CLint (uL/min/mg), Rat liver microsome experiment; for half-life at 1 μM: read-out: t1/2 (min), Rat liver microsome experiment
Description: as §10, §11, §12, §13, §14

T1 sequence (Q9UM73 whole entry, change not shown, the tested form may be a part): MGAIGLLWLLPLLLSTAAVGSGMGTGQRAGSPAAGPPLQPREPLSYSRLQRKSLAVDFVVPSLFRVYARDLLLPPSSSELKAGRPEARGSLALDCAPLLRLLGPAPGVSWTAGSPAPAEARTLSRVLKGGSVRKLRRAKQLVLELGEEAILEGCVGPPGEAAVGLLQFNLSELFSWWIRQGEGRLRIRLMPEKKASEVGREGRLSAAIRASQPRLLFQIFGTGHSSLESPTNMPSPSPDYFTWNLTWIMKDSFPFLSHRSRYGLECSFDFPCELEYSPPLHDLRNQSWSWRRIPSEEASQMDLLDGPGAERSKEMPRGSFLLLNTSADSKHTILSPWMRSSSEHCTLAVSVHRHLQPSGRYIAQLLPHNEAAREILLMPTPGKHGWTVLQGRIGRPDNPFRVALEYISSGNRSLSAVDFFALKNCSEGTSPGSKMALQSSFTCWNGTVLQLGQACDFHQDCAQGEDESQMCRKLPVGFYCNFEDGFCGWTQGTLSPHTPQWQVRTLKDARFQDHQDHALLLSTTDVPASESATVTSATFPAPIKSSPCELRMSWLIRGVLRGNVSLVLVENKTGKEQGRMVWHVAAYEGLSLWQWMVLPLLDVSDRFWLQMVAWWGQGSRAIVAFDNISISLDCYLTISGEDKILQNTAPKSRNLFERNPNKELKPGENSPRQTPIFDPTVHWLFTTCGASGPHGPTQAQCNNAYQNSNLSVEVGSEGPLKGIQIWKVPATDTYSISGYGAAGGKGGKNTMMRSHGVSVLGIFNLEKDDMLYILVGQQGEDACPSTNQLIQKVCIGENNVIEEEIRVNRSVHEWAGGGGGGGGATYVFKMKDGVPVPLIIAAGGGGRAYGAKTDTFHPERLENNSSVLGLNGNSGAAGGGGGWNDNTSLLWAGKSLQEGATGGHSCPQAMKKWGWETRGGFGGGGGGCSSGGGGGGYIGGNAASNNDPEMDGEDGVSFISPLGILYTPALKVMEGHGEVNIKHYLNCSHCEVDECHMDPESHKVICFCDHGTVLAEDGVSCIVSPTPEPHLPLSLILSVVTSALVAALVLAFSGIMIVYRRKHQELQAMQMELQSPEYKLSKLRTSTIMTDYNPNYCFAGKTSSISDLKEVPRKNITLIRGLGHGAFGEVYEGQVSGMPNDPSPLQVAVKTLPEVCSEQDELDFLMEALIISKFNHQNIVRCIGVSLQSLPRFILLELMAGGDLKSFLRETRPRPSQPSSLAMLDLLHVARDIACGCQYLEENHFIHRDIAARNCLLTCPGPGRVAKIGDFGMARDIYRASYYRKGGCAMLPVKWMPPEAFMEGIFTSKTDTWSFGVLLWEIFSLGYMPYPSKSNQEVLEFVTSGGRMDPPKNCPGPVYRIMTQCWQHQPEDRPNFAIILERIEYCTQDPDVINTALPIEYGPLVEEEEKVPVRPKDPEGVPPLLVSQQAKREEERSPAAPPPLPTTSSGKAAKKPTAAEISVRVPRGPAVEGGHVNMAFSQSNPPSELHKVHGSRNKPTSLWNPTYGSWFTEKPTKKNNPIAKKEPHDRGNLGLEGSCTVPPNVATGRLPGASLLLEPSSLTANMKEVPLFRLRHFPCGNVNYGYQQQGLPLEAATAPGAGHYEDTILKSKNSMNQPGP
T2 sequence (Q9UM73 whole entry L1196M, the tested form may be a part): as the sequence (Q9UM73 whole entry, change not shown, the tested form may be a part) above, with L1196M counted along it
Chain of ALK [L1196M] (Q9UM73 19-1620 L1196M): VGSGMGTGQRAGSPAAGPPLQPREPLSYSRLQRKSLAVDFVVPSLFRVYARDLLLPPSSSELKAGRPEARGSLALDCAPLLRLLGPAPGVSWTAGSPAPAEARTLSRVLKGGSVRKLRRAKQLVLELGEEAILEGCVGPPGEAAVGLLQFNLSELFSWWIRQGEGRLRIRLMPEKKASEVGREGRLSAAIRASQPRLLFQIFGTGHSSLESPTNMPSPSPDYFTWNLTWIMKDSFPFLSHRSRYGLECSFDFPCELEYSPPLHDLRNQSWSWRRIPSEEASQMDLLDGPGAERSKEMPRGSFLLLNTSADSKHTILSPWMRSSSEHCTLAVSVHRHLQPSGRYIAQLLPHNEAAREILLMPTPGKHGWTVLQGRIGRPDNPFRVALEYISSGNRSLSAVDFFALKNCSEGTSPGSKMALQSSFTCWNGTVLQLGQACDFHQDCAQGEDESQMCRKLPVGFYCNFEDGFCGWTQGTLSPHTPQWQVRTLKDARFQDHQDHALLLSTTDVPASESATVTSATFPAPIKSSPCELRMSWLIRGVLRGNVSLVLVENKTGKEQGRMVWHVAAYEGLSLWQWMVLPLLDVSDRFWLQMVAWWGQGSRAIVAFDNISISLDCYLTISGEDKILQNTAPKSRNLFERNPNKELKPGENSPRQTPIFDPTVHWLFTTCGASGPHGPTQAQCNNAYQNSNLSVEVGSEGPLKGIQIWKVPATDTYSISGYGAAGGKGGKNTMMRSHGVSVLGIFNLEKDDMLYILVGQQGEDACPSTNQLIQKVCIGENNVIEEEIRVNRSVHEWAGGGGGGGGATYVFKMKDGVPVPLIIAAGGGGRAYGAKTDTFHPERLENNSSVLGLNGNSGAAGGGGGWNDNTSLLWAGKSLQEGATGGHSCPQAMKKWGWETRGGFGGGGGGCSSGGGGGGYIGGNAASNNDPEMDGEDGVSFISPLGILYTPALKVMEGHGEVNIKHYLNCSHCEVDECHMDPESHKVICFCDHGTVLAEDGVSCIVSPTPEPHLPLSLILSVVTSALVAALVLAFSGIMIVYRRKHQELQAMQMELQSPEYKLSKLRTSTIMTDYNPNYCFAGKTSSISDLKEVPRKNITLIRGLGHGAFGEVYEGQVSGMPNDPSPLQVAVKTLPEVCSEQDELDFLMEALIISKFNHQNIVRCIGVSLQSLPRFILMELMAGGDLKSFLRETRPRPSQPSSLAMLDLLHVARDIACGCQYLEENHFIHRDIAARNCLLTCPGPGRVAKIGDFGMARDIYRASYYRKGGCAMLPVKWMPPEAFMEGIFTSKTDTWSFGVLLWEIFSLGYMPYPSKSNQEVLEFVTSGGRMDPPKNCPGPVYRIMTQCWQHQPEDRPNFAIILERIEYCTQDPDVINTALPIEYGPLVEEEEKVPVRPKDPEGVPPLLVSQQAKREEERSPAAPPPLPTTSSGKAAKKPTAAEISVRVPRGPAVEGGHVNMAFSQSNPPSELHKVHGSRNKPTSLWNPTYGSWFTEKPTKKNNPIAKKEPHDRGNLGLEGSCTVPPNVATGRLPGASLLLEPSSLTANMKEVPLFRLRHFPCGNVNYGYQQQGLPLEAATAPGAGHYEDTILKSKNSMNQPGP
Chain of ALK [WT] (Q9UM73 19-1620): as the sequence (Q9UM73 19-1620 L1196M) above, with M1178L counted along it

| SMILES | IC50 (ALK [WT]) | IC50 (ALK [L1196M]) | microsomal CLint at 1 μM [5] | half-life at 1 μM [5] | microsomal CLint at 1 μM [6] | half-life at 1 μM [6] | IC50 (BaF3 parental) | GI50 (BaF3 [EML4-ALK] [1]) | Selectivity parental/ALK (BaF3 [EML4-ALK] [2]) | GI50 (ALK[L1196M] (Ba/F3) [3]) | Selectivity parental/ALK[L1196M] (ALK[L1196M] (Ba/F3) [4]) |
| --- | --- | --- | --- | --- | --- | --- | --- | --- | --- | --- | --- |
| COc1cc(CN(C)C)ccc1Nc1ncc(Cl)c(Nc2ccccc2P(C)(C)=O)n1 [Example 1, (2-((5-chloro-2-((4-((dimethylamino)methyl)-2-methoxyphenyl)amino)pyrimidin-4-yl)amino)phenyl)dimethylphosphine oxide] | 5 to 10 nM | 5 to 10 nM | 10.6 µL/min/mg | 131 min | 43.4 µL/min/mg | 31.9 min | ≥ 1000 nM | 50 to 100 nM | <50 | 100 to 200 nM | <50 |
| COc1cc(CCN)ccc1Nc1ncc(Cl)c(Nc2ccccc2P(C)(C)=O)n1 [Example 2, (2-((2-((4-(2-aminoethyl)-2-methoxyphenyl)amino)-5-chloropyrimidin-4-yl)amino)phenyl)dimethylphosphine oxide] | ≤ 2 nM | 2 to 5 nM | 8.7 µL/min/mg | 160 min | 8.4 µL/min/mg | 165 min | ≥ 1000 nM | 100 to 200 nM | <50 | 200 to 1000 nM | <50 |
| COc1cc(CCN(C)C)ccc1Nc1ncc(Cl)c(Nc2ccccc2P(C)(C)=O)n1 [Example 3, (2-((5-chloro-2-((4-(2-(dimethylamino)ethyl)-2-methoxyphenyl)amino)pyrimidin-4-yl)amino)phenyl)dimethylphosphine oxide] | ≤ 2 nM | 2 to 5 nM | 15.4 µL/min/mg | 90.1 min | 50.4 µL/min/mg | 27.5 min | ≥ 1000 nM | 25 to 50 nM | 50 to 100 | 100 to 200 nM | <50 |
| COc1cc(CCN2CCCCC2)ccc1Nc1ncc(Cl)c(Nc2ccccc2P(C)(C)=O)n1 [Example 4, (2-((5-chloro-2-((2-methoxy-4-(2-(piperidin-1-yl)ethyl)phenyl)amino)pyrimidin-4-yl)amino)phenyl)dimethylphosphine oxide] | ≤ 2 nM | 2 to 5 nM | 26.7 µL/min/mg | 51.9 min | 34.7 µL/min/mg | 39.9 min | ≥ 1000 nM | < 25 nM | 200 to 500 | 50 to 100 nM | <50 |
| COc1cc(C(C)N)ccc1Nc1ncc(Cl)c(Nc2ccccc2P(C)(C)=O)n1 (centres unmarked) [Example 7, (2-((2-((4-(1-aminoethyl)-2-methoxyphenyl)amino)-5-chloropyrimidin-4-yl)amino)phenyl)dimethylphosphine oxide] | 2 to 5 nM | 2 to 5 nM | 5.7 µL/min/mg | 244 min | 4.1 µL/min/mg | 340 min | ≥ 1000 nM | 50 to 100 nM | <50 | 200 to 1000 nM | <50 |

More lines, main results first:

| IC50 (ALK [WT]) | IC50 (ALK [L1196M]) | microsomal CLint at 1 μM [5] | half-life at 1 μM [5] | microsomal CLint at 1 μM [6] | half-life at 1 μM [6] | SMILES | IC50 (BaF3 parental) | GI50 (BaF3 [EML4-ALK] [1]) | Selectivity parental/ALK (BaF3 [EML4-ALK] [2]) | GI50 (ALK[L1196M] (Ba/F3) [3]) | Selectivity parental/ALK[L1196M] (ALK[L1196M] (Ba/F3) [4]) |
| --- | --- | --- | --- | --- | --- | --- | --- | --- | --- | --- | --- |
| ≤ 2 nM | ≤ 2 nM | 17.3 µL/min/mg | 80 min | 35.9 µL/min/mg | 38.6 min | COc1cc(CCN2CCN(C)CC2)ccc1Nc1ncc(Cl)c(Nc2ccccc2P(C)(C)=O)n1 [Example 5, (2-((5-chloro-2-((2-methoxy-4-(2-(4-methylpiperazin-1-yl)ethyl)phenyl)amino)pyrimidin-4-yl)amino)phenyl)dimethylphosphine oxide] | ≥ 1000 nM | < 25 nM | 200 to 500 | 25 to 50 nM | 100 to 200 |
| 2 to 5 nM | 2 to 5 nM | 29.1 µL/min/mg | 47.6 min | 85.1 µL/min/mg | 16.3 min | COc1cc(CCN2CCOCC2)ccc1Nc1ncc(Cl)c(Nc2ccccc2P(C)(C)=O)n1 [Example 6, (2-((5-chloro-2-((2-methoxy-4-(2-morpholinoethyl)phenyl)amino)pyrimidin-4-yl)amino)phenyl)dimethylphosphine oxide] | ≥ 1000 nM | < 25 nM | 200 to 500 | 100 to 200 nM | <50 |
